Drawing on article doi:10.1101/2020.08.18.255380v4 (biorxiv, 2021), this text covers Kd for 3 compounds.

Test [1] concerns the target DalS (Salmonella enterica, UniProt Q8ZPA3, A147S). Put plainly: biochemical.
Test [2] deals with DalS (Salmonella enterica, UniProt Q8ZPA3). Put plainly: fluorescence. The format is binding.
The target in test [3] is DalS (Salmonella enterica, UniProt Q8ZPA3, A147S/A76D/D216E/F117L/T197Y/Y148Q). Description: biochemical.
In test [4] the target is DalS (Salmonella enterica, UniProt Q8ZPA3, F117L). Description: biochemical.
The target in test [5] is DalS (Salmonella enterica, UniProt Q8ZPA3, A147S/A76D/D216E/F117L/S60R/Y148Q). Description: biochemical.
Test [6] addresses DalS (Salmonella enterica, UniProt Q8ZPA3, Y148Q). Description: biochemical.
Test [7] addresses DalS (Salmonella enterica, UniProt Q8ZPA3, A147S/F117L/Y148Q). Put plainly: biochemical.

For `C[C@@H](N)C(=O)O` [D-alanine], the Kd turned out to be 0.62 ± 0.03 µM at DalS [1], 5.4 ± 0.4 µM at DalS [2] and 14 ± 1 µM on DalS [3].

In the case of `NCC(=O)O` [glycine], the Kd on DalS [2] came out at 5 ± 1 µM; at DalS [3], 40 ± 2 µM.

Regarding `N[C@H](CO)C(=O)O` [D-serine], the Kd was found to be 1.8 ± 0.4 µM on DalS [1]; 12 ± 1 µM at DalS [2]; 4.8 ± 0.2 µM on DalS [3]; 3.7 ± 0.2 µM at DalS [4]; 70 ± 17 µM on DalS [5]; 101 ± 3 µM at DalS [6]. On DalS [7], this compound displayed a Kd of 43 ± 1 µM.
